The nature of assay [1]: Affinity assay of salts of kukoamine B with lipid A (IAsys plus Affinity Sensor). In kind it is binding. The settings on record: 1 mg in 1 ml PBS (0.01 M, pH 7.4), 5 μl added to cuvette with 45 μl PBS, immobilized lipid A, 3 min; curves in FIG. 1. The procedure:
15.1 Methods: The affinity assay is carried out according to the methods disclosed in the Chinese patent titled “Use of an active ingredient or active substance selected and isolated from traditional Chinese herbs in the preparation of drugs for treating sepsis” (Chinese patent Number ZL 200510070677.3) granted to the applicant, which mainly comprises the following steps:
(1) Lipid A is immobilized on the reacting surfaces of non-derivative cuvettes according to the instructions of immobilization of lipid in the manufacturer's instructions of IAsys plus Affinity Sensor. Wherein, the end of hydrophobic side chain of lipid A was immobilized on cuvette, and the hydrophilic end is floating outside, which act as target site of binding reaction;
(2) 1 mg of each of the salts, including kukoamine B hydrochlorate, kukoamine B hydrobromide, kukoamine B sulfate, kukoamine B phosphate, kukoamine B acetate, kukoamine B maleate, kukoamine B succinate, kukoamine B malate, kukoamine B lactate, kukoamine B tartrate, kukoamine B methanesulfonate, kukoamine B p-toluenesulfonate, kukoamine B glutamate, and kukoamine B aspartate, is fully dissolved by 1 ml of PBS solution (0.01 M, pH 7.4), respectively;
(3) 5 μl of each of the solution obtained in step (2) is added into the affinity sensor's cuvettes (containing 45 μl of PBS solution) previously immobilized with lipid A to carry out the reaction, respectively;
(4) The binding reaction is carried out for 3 min, and the binding curves are recorded;
(5) Each of the cuvettes is washed with 50 μl of PBS solution for 3 times, and dissociation curves are recorded;
(6) Each of the cuvettes is washed with 0.1 M HCl solution for 3 times, and the regeneration curves are recorded.

A short description of assay [2]: Neutralizing test on LPS in vitro (kinetic turbidimetric limulus test). The settings on record: 20 μM solution mixed with equal volume of LPS 0.25 ng/ml, 37° C. 30 min, TAL reagent; FIG. 2. In kind it is biochemical. The procedure:
16.1 Methods: The neutralizing test is carried out according to the manufacturer's instructions of 32 Well Kinetic Tube Reader (ATi321-06) endotoxin detector, which mainly comprises the following steps:
(1) Each of the salts, including kukoamine B hydrochlorate, kukoamine B hydrobromide, kukoamine B sulfate, kukoamine B phosphate, kukoamine B acetate, kukoamine B maleate, kukoamine B succinate, kukoamine B malate, kukoamine B lactate, kukoamine B tartrate, kukoamine B methanesulfonate, kukoamine B p-toluenesulfonate, kukoamine B glutamate, and kukoamine B aspartate, is prepared into 20 μM solution with nonpyrogenic water, respectively;
(2) 100 μl of each of the solution obtained in step (1) is separately mixed with equal volume of LPS solution (0.25 ng/ml). At the same time, the control group is established, which is a mixed solution containing 100 μl of nonpyrogenic water and equal volume of LPS solution (0.25 ng/ml). The LPS group and control group are incubated at 37° C. for 30 min. Then, 100 μl of the reaction solutions of LPS group and control group are separately added into a detector tube containing 100 μl of TAL reagents, and LPS value of each group are detected by kinetic turbidimetric limulus test according to the manufacturer's instructions of 32 Well Kinetic Tube Reader (ATi321-06) Bacterial Endotoxin Detection system. The test of each concentration is repeated three times;

Assay [3] deals with sepsis model of mice. Briefly: Protective effect in the sepsis model of mice (cecal ligation and puncture, CLP). It is filed as in vivo, Balb/c mice. The settings on record: 7 days; for survival rate of mice: combination with antibiotic (ampicillin sodium-sulbactam sodium 80 mg/kg), salt 2.5 mg/kg through tail vein at 0-68 hours after surgery; for protective effect to the sepsis model of mice: salt 2.5 mg/kg tail vein combined with antibiotic, FIG. 5. From the text:
19.1 Methods: 120 Balb/c mice, each of 19-21 g, half of which being male and half female, are divided into six groups randomly, including control group, antibiotic group, antibiotic and kukoamine B hydrochlorate group, antibiotic and kukoamine B methanesulfonate group, antibiotic and kukoamine B p-toluenesulfonate group, and antibiotic and kukoamine B benzene sulfonate group. Each group contains 20 mice. The mice are narcotized with anesthesia machine; the vapor concentration of isoflurane is 5%; the pressure of the mixed gas is 1 MPa; anesthesia time is about 5 min. The mice model are setup by cecal ligation and puncture (CLP) comprising the following steps: the mice are maintained in supine position, and the abdomen skin is disinfected with iodophor; the skin, muscular layer and peritoneum below the midpoint of linea alba 0.3 cm are cut open with ophthalmic scissors (the length of the incisions is 0.8 CM); the muscular layer is picked up with ophthalmic forceps, and the enterocoelia is explored with ophthalmic forceps; the cecum is pulled out and ligated with No. 4 suture at 0.5 CM from the end of cecum; then, the cecum is vertically punctured with No. 12 needle, and squeezed to extrude contents; finally, the cecum is put back and the incision is stitched. Thereafter, the mice in control group are injected with 0.2 ml of sterile saline through tail vein; the mice in antibiotic group are injected with antibiotic (ampicillin sodium-sulbactam sodium) at a dosage of 80 mg/kg body weight through tail vein at 4 hours after surgery; the mice in other four groups are separately injected with kukoamine B hydrochlorate, kukoamine B methanesulfonate, kukoamine B p-toluenesulfonate and kukoamine B benzene sulfonate at a dosage of 2.5 mg/kg body weight at a time through tail vein at 0, 4, 12, 20, 28, 36, 44, 52, 60 and 68 hours after surgery.

Assay [4] concerns RAW264.7 cells. Briefly: Inhibition of release of inflammatory mediators (TNF-α) in RAW264.7 cells induced by CpG DNA. The settings on record: CpG DNA 10 μg/ml, salt 0, 50, 100, 200 μM, 4 h, ELISA, FIG. 4. In kind it is cell-based. The procedure: (§1) 18.1 Methods: RAW264.7 cells are diluted to 1×10^6/ml in DMEM culture medium, added into a 96-well cell culture plate (200 μl per well), and incubated at 37° C. in a 5% CO2 humidified incubator for 4 h, and then the supernatant is replaced with 200 μl of serum-free DMEM culture medium after cells attachment. Next, each well is added with CpG DNA (final concentration of 10 μg/ml ), and then added with one of the salts of kukoamine B (including kukoamine B malate, kukoamine B succinate, kukoamine B lactate, kukoamine B tartrate, kukoamine B methanesulfonate, kukoamine B p-toluenesulfonate, kukoamine B glutamate, kukoamine B acetate, kukoamine B hydrochlorate, and kukoamine B sulfate) to obtain the final concentration of 0, 50, 100, and 200 μM, respectively. The control group contains no CpG DNA. Then, the incubation goes on for 4 h. The supernatant is collected to measure the concentration of TNF-α according to the manufacturer's instructions of ELISA kit.
(An ELISA detects its analyte on a solid surface through an enzyme-linked reagent.)

Assay [5] has as its system RAW264.7 cells. Briefly: Inhibition of release of inflammatory mediators (TNF-α) in RAW264.7 cells induced by LPS. In kind it is cell-based. The settings on record: LPS 100 ng/ml, salt 0, 50, 100, 200 μM, 4 h, ELISA, FIG. 3. Here is the method: as §1, with “17.1” for “18.1”, “LPS” for “CpG DNA”, “100 ng/ml),” for “10 μg/ml ),”, “LPS.” for “CpG DNA.”

Counter-ions that a name gives are not always drawn.

Take `NCCCN(CCCCNCCCNC(=O)CCc1ccc(O)c(O)c1)C(=O)CCc1ccc(O)c(O)c1` [kukoamine B hydrobromide]: the “binding reaction with lipid A” value in assay [1] is on record as “can bind with lipid A”. Moreover, the “neutralization of LPS in vitro” value in assay [2] is reported as “can neutralize LPS in vitro”.

kukoamine B benzene sulfonate: in assay [3], the “survival rate of mice” value is given as 30% and the “protective effect to the sepsis model of mice” value (from here on “protective effect … of mice”) was “have protective effects to the sepsis model of mice”.

For `CC(O)C(=O)O.NCCCN(CCCCNCCCNC(=O)CCc1ccc(O)c(O)c1)C(=O)CCc1ccc(O)c(O)c1` [kukoamine B lactate], in assay [4], the “inhibition of the release of TNF-α induced by CpG DNA” value (“inhibition … by CpG DNA” for short) is given as “can inhibit the release of TNF-α”. The “binding reaction with lipid A” value in assay [1] is listed as “can bind with lipid A”. Moreover, the “neutralization of LPS in vitro” value in assay [2] is on record as “can neutralize LPS in vitro”. Further, in assay [5], the “inhibition of the release of TNF-α induced by LPS” value (from here on “inhibition of the release … by LPS”) is “can inhibit the release of TNF-α”.

On to `CC(=O)O.NCCCN(CCCCNCCCNC(=O)CCc1ccc(O)c(O)c1)C(=O)CCc1ccc(O)c(O)c1` [kukoamine B acetate], for which the “inhibition … by CpG DNA” value in assay [4] is “can inhibit the release of TNF-α”. Also, in assay [1], the “binding reaction with lipid A” value is reported as “can bind with lipid A”. In addition, the “neutralization of LPS in vitro” value in assay [2] was “can neutralize LPS in vitro”. In assay [5], the “inhibition of the release … by LPS” value is “can inhibit the release of TNF-α”.

With `NCCCN(CCCCNCCCNC(=O)CCc1ccc(O)c(O)c1)C(=O)CCc1ccc(O)c(O)c1` [kukoamine B malate], the “inhibition … by CpG DNA” value in assay [4] was “can inhibit the release of TNF-α”. Further, in assay [5], the “inhibition of the release … by LPS” value is “can inhibit the release of TNF-α”.

On to `Cc1ccc(S(=O)(=O)O)cc1.NCCCN(CCCCNCCCNC(=O)CCc1ccc(O)c(O)c1)C(=O)CCc1ccc(O)c(O)c1` [kukoamine B p-toluenesulfonate], for which, in assay [3], the “survival rate of mice” value turned out to be 20% and the “protective effect … of mice” value was “have protective effects to the sepsis model of mice”. Also, the “inhibition … by CpG DNA” value in assay [4] is listed as “can inhibit the release of TNF-α”. The “binding reaction with lipid A” value in assay [1] is listed as “can bind with lipid A”. Further, the “neutralization of LPS in vitro” value in assay [2] was “can neutralize LPS in vitro”. Also, the “inhibition of the release … by LPS” value in assay [5] was “can inhibit the release of TNF-α”.

On to `NCCCN(CCCCNCCCNC(=O)CCc1ccc(O)c(O)c1)C(=O)CCc1ccc(O)c(O)c1` [kukoamine B hydrochlorate], for which, in assay [3], the “survival rate of mice” value was 20% and the “protective effect … of mice” value is “have protective effects to the sepsis model of mice”.

In the case of `CS(=O)(=O)O.NCCCN(CCCCNCCCNC(=O)CCc1ccc(O)c(O)c1)C(=O)CCc1ccc(O)c(O)c1` [kukoamine B methanesulfonate], in assay [3], the “survival rate of mice” value amounted to 50% and the “protective effect … of mice” value is given as “have protective effects to the sepsis model of mice”. The “comparison of protective effect among the salts” value in assay [3] (four salts compared) is listed as “has the best effect”. In addition, the “inhibition … by CpG DNA” value in assay [4] is “can inhibit the release of TNF-α”. Moreover, the “binding reaction with lipid A” value in assay [1] is on record as “can bind with lipid A”. The “neutralization of LPS in vitro” value in assay [2] is reported as “can neutralize LPS in vitro”. Further, in assay [5], the “inhibition of the release … by LPS” value is reported as “can inhibit the release of TNF-α”.
